Source: US20250051300A1, “GRAM-NEGATIVE SPECIFIC ANTIBIOTICS SPARING EFFECT ON GUT MICROBIOME” (THE BOARD OF TRUSTEES OF THE UNIVERSITY OF ILLINOIS, priority 2021, published 2025)
Like-named read-outs stand apart in the source and are kept apart here.

Assays:
[1] = tested on: Enterobacter cloacae; assay: MIC, micro-dilution broth method (CLSI); type: cell-based; settings: Enterobacter cloacae, read-out: MIC
[2] = tested on: Klebsiella pneumoniae; assay: MIC, micro-dilution broth method (CLSI); type: cell-based; settings: Klebsiella pneumoniae, read-out: MIC

Measured: MIC

Cc1cc(-c2c[nH]nc2-c2cccc(OCc3cccc(C#N)c3)c2)cc(C)n1 [Compound 12, 3-((3-(4-(2,6-dimethylpyridin-4-yl)-1H-pyrazol-3-yl)phenoxy)methyl)benzonitrile]
16 µg/mL: [1]; E. cloacae AR0073
8 µg/mL: [1]; E. cloacae AR-0163 | [2]; ATCCBAA2146, K. pneumoniae ATCC BAA-2146 | [2]; K. pneumoniae AR0049 | [2]; K. pneumoniae AR0109 | [2]; K. pneumoniae AR0115 | [2]; K. pneumoniae AR0158 | [2]; K. pneumoniae AR0347
4 µg/mL: [1]; E. cloacae AR0072 | [1]; E. cloacae AR0136 | [1]; E. cloacae AR0544 | [2]; ATCCBAA1705, K. pneumoniae ATCC BAA-1705 | [2]; ATCCBAA2342, K. pneumoniae ATCC BAA-2342 | [2]; ATCCBAA2472, K. pneumoniae ATCC BAA-2472 | [2]; ATCCBAA2473, K. pneumoniae ATCC BAA-2473 | [2]; K. pneumoniae AR0042 | [2]; K. pneumoniae AR0047 | [2]; K. pneumoniae AR0066 | [2]; K. pneumoniae AR0068 | [2]; K. pneumoniae AR0098 | [2]; K. pneumoniae AR0112 | [2]; K. pneumoniae AR0117 | [2]; K. pneumoniae AR0125 | [2]; K. pneumoniae AR0129 | [2]; K. pneumoniae AR0143 | [2]; K. pneumoniae AR0148 | [2]; K. pneumoniae AR0153 | [2]; K. pneumoniae AR0552 | [2]; K. pneumoniae AR0554
1 µg/mL: [1]; E. cloacae AR0065 | [1]; E. cloacae AR0132 | [1]; E. cloacae AR0545 | [2]; ATCC27736, K. pneumoniae ATCC 27736 | [2]; ATCCBAA2470, K. pneumoniae ATCC BAA-2470 | [2]; K. pneumoniae AR0075 | [2]; K. pneumoniae AR0138 | [2]; K. pneumoniae AR-0040
2 µg/mL: [1]; E. cloacae AR0093 | [1]; E. cloacae AR0164 | [2]; K. pneumoniae AR0046 | [2]; K. pneumoniae AR0079 | [2]; K. pneumoniae AR0087 | [2]; K. pneumoniae AR0106 | [2]; K. pneumoniae AR0113 | [2]; K. pneumoniae AR0120 | [2]; K. pneumoniae AR0135 | [2]; K. pneumoniae AR0139 | [2]; K. pneumoniae AR0140 | [2]; K. pneumoniae AR0145 | [2]; K. pneumoniae AR0146 | [2]; K. pneumoniae AR0542 | [2]; K. pneumoniae AR0548 | [2]; K. pneumoniae AR0550 | [2]; K. pneumoniae AR0555
0.5 µg/mL: [2]; K. pneumoniae AR0034 | [2]; K. pneumoniae AR0039 | [2]; K. pneumoniae AR0041 | [2]; K. pneumoniae AR0043 | [2]; K. pneumoniae AR0044 | [2]; K. pneumoniae AR0076 | [2]; K. pneumoniae AR0080 | [2]; K. pneumoniae AR0126 | [2]; K. pneumoniae AR0141 | [2]; K. pneumoniae AR0142 | [2]; K. pneumoniae AR0152 | [2]; K. pneumoniae AR0160 | [2]; K. pneumoniae AR0553
0.25 µg/mL: [1]; E. cloacae AR0154 | [2]; K. pneumoniae AR0107
